From patent publication US20260308159A1, “BICYCLIC HETEROARYLAMIDES HAVING GPR68 MODULATING ACTIVITY” (RECURSION PHARMACEUTICALS, INC., priority 2023, published 2026)
Read-outs that look alike come from different tables or passages of the source.

Biological target: T1, human GPR68 (Homo sapiens, UniProt Q15743)
T1 construct: encoding full-length human GPR68 (uniprot ID: Q15743); expressed in transfected cells; host or cells: HEK293T
Test: GPR68 Biochemical Assay (Promega GloSensor cAMP assay, GPR68 antagonism)
Assay type: cell-based
Conditions: 15 min
Summary of the method: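 HEK293T cells transiently co-transfected with full-length human GPR68 and GloSensor plasmids, preloaded 60 min with GloSensor substrate in pH 8.0 buffer. Compounds (9-point half-log series, top 50 μM final, 0.5% DMSO) added with pH 5.5 buffer (~EC80-90 stimulation); luminescence read after 15 min at room temperature. IC50 from sigmoidal fit of % inhibition.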

[1] = HEK293T cells transiently expressing hGPR68, antagonism of pH 5.5 stimulated cAMP, read-out: hGPR68 IC50

T1 sequence (Q15743 whole entry): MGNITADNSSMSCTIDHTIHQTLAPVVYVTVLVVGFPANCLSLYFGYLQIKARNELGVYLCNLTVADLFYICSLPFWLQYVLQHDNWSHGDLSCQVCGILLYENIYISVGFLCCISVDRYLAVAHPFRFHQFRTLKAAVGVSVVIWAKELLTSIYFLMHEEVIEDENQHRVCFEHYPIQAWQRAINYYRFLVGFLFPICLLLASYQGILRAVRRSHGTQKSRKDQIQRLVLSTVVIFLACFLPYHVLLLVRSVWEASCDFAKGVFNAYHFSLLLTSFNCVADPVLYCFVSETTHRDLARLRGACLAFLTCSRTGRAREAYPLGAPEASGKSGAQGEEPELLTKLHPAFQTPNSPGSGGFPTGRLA

SMILES | IC50 [1] | IC50 (hGPR68 IC50, HEK293T cells transiently expressing hGPR68, antagonism of pH 5.5 stimulated cAMP)
NC(=O)c1c(CO)nn2c(C(=O)NC3CC(F)(F)C3)ccnc12 [Compound 207, N7-(3,3-difluorocyclobutyl)-2-(hydroxymethyl)pyrazolo[1,5-a]pyrimidine-3,7-dicarboxamide] | 0.5 to 5 µM | –
COCc1nc2c(C(=O)NC3CCC(F)(F)CC3)ncnn2c1C(N)=O [Compound 212, N4-(4,4-difluorocyclohexyl)-6-(methoxymethyl)imidazo[2,1-f][1,2,4]triazine-4,7-dicarboxamide] | 0.05 to 0.5 µM | –
CC(C)(O)c1nn2c(C(=O)NC3CC(F)(F)C3)ccnc2c1C(N)=O [Compound 213, N7-(3,3-difluorocyclobutyl)-2-(1-hydroxy-1-methyl-ethyl)pyrazolo[1,5-a]pyrimidine-3,7-dicarboxamide] | – | 0.05 to 0.5 µM
CS(=O)(=O)Cc1nn2c(C(=O)NC3Cc4ccccc4C3)ccnc2c1C(N)=O [Compound 215, N7-indan-2-yl-2-(methylsulfonylmethyl)pyrazolo[1,5-a]pyrimidine-3,7-dicarboxamide] | 0.05 to 0.5 µM | –
COCc1nc2c(C(=O)NC3CCC(F)(F)CC3)cc(C)nn2c1C(N)=O [Compound 218, N8-(4,4-difluorocyclohexyl)-2-(methoxymethyl)-6-methyl-imidazo[1,2-b]pyridazine-3,8-dicarboxamide] | 0.05 to 0.5 µM | –
COCc1nc2c(C(=O)N[C@H]3CCS(=O)(=O)c4ccccc43)ccnn2c1C(N)=O [Compound 220, 2-(methoxymethyl)-N8-[(4S)-1,1-dioxo-3,4-dihydro-2H-thiochromen-4-yl]imidazo[1,2-b]pyridazine-3,8-dicarboxamide] | 0.05 to 0.5 µM | –
COCc1nc2c(C(=O)NC3CCS(=O)(=O)c4ccccc43)ccnn2c1C(N)=O (centres unmarked) [Compound 221, N8-(1,1-dioxo-3,4-dihydro-2H-thiochromen-4-yl)-2-(methoxymethyl)imidazo[1,2-b]pyridazine-3,8-dicarboxamide] | 0.05 to 0.5 µM | –
COCc1nn2c(C(=O)N[C@H]3C[C@H](OC(F)(F)F)C3)ccnc2c1C(N)=O [Compound 224, 2-(methoxymethyl)-N7-[trans-3-(trifluoromethoxy)cyclobutyl]pyrazolo[1,5-a]pyrimidine-3,7-dicarboxamide] | 0.05 to 0.5 µM | –
COCc1nn2c(C(=O)NC3CC(F)(F)c4ccccc43)cc(C)nc2c1C(N)=O (centres unmarked) [Compound 232, N7-(3,3-difluoroindan-1-yl)-2-(methoxymethyl)-5-methyl-pyrazolo[1,5-a]pyrimidine-3,7-dicarboxamide] | < 0.05 µM | –
COCc1nn2c(C(=O)N[C@@H]3CCS(=O)(=O)c4ccccc43)ccnc2c1C(N)=O [Compound 233, N7-[(4R)-1,1-dioxo-3,4-dihydro-2H-thiochromen-4-yl]-2-(methoxymethyl)pyrazolo[1,5-a]pyrimidine-3,7-dicarboxamidfe] | < 0.05 µM | –
NC(=O)c1c(C2CC2)nn2c(C(=O)N[C@@H]3CCS(=O)(=O)c4ccccc43)ccnc12 [Compound 235, 2-cyclopropyl-N7-[(4R)-1,1-dioxo-3,4-dihydro-2H-thiochromen-4-yl]pyrazolo[1,5-a]pyrimidine-3,7-dicarboxamide] | < 0.05 µM | –
NC(=O)c1c(C2CC2)nn2c(C(=O)N[C@H]3CCS(=O)(=O)c4ccccc43)ccnc12 [Compound 236, 2-cyclopropyl-N7-[(4S)-1,1-dioxo-3,4-dihydro-2H-thiochromen-4-yl]pyrazolo[1,5-a]pyrimidine-3,7-dicarboxamide] | < 0.05 µM | –
COCc1nn2c(C(=O)NC3CC(F)(F)c4ccc(F)cc43)ccnc2c1C(N)=O (centres unmarked) [Compound 237, 2-(Methoxymethyl)-N7-(3,3,6-trifluoroindan-1-yl)pyrazolo[1,5-a]pyrimidine-3,7-dicarboxamide] | < 0.05 µM | –
COCc1nn2c(C(=O)N[C@@H]3COc4c3ccc(F)c4F)ccnc2c1C(N)=O [Compound 238, N7-[(3S)-6,7-difluoro-2,3-dihydrobenzofuran-3-yl]-2-(methoxymethyl)pyrazolo[1,5-a]pyrimidine-3,7-dicarboxamide] | < 0.05 µM | –
COCc1nn2c(C(=O)NC3CCC(F)(F)c4cc(F)ccc43)ccnc2c1C(N)=O (centres unmarked) [Compound 239, 2-(methoxymethyl)-N7-(4,4,6-trifluorotetralin-1-yl)pyrazolo[1,5-a]pyrimidine-3,7-dicarboxamide] | < 0.05 µM | –
COCc1nn2c(C(=O)NC3CCC(F)(F)CC3)cc(C)nc2c1C(N)=O [Compound 240, N7-(4,4-difluorocyclohexyl)-2-(methoxymethyl)-5-methyl-pyrazolo[1,5-a]pyrimidine-3,7-dicarboxamide] | < 0.05 µM | –
COCc1nn2c(C(=O)NC3CCS(=O)(=O)c4ccccc43)cc(C)nc2c1C(N)=O (centres unmarked) [Compound 241, N7-(1,1-dioxo-3,4-dihydro-2H-thiochromen-4-yl)-2-(methoxymethyl)-5-methyl-pyrazolo[1,5-a]pyrimidine-3,7-dicarboxamide] | 0.05 to 0.5 µM | –
Cc1cc(C(=O)NC2CCS(=O)(=O)c3ccccc32)n2nc(C3CC3)c(C(N)=O)c2n1 (centres unmarked) [Compound 242, 2-cyclopropyl-N7-(1,1-dioxo-3,4-dihydro-2H-thiochromen-4-yl)-5-methyl-pyrazolo[1,5-a]pyrimidine-3,7-dicarboxamide] | < 0.05 µM | –

Further lines, results first:

IC50 [1] | IC50 (hGPR68 IC50, HEK293T cells transiently expressing hGPR68, antagonism of pH 5.5 stimulated cAMP) | SMILES
< 0.05 µM | – | NC(=O)c1c(C2CC2)nc2c(C(=O)NC3Cc4cscc4C3)ccnn12 [Compound 208, 2-cyclopropyl-N8-(5,6-dihydro-4H-cyclopenta[c]thiophen-5-yl)imidazo[1,2-b]pyridazine-3,8-dicarboxamide]
< 0.05 µM | – | NC(=O)c1c(C2CC2)nc2c(C(=O)NC3CC(F)(F)c4ccccc43)ccnn12 (centres unmarked) [Compound 209, 2-cyclopropyl-N8-(3,3-difluoroindan-1-yl)imidazo[1,2-b]pyridazine-3,8-dicarboxamide]
< 0.05 µM | – | NC(=O)c1c(C2CC2)nc2c(C(=O)NC3Cc4ccccc43)ccnn12 (centres unmarked) [Compound 210, N8-(7-bicyclo[4.2.0]octa-1,3,5-trienyl)-2-cyclopropyl-imidazo[1,2-b]pyridazine-3,8-dicarboxamide]
< 0.05 µM | – | NC(=O)c1c(C2CC2)nc2c(C(=O)N[C@H]3CCOc4cc(F)ccc43)ccnn12 [Compound 211, 2-cyclopropyl-N8-[(4S)-7-fluorochroman-4-yl]imidazo[1,2-b]pyridazine-3,8-dicarboxamide]
< 0.05 µM | – | CSCc1nn2c(C(=O)NC3Cc4ccccc4C3)ccnc2c1C(N)=O [Compound 214, N7-indan-2-yl-2-(methylsulfanylmethyl)pyrazolo[1,5-a]pyrimidine-3,7-dicarboxamide]
< 0.05 µM | – | NC(=O)c1c(COC2CC2)nn2c(C(=O)N[C@H]3C[C@@H](OC(F)(F)F)C3)ccnc12 [Compound 216, 2-(cyclopropoxymethyl)-N7-[cis-3-(trifluoromethoxy)cyclobutyl]pyrazolo[1,5-a]pyrimidine-3,7-dicarboxamide]
< 0.05 µM | – | CSCc1nn2c(C(=O)N[C@H]3C[C@@H](OC(F)(F)F)C3)ccnc2c1C(N)=O [Compound 217, 2-(methylsulfanylmethyl)-N7-[cis-3-(trifluoromethoxy)cyclobutyl]pyrazolo[1,5-a]pyrimidine-3,7-dicarboxamide]
< 0.05 µM | – | COCc1nc2c(C(=O)N[C@@H]3CCS(=O)(=O)c4ccccc43)ccnn2c1C(N)=O [Compound 219, 2-(methoxymethyl)-N8-[(4R)-1,1-dioxo-3,4-dihydro-2H-thiochromen-4-yl]imidazo[1,2-b]pyridazine-3,8-dicarboxamide]
< 0.05 µM | – | NC(=O)c1c(C2CC2)nc2c(C(=O)NC3CS(=O)(=O)c4ccccc43)ccnn12 (centres unmarked) [Compound 222, 2-cyclopropyl-N8-(1,1-dioxo-2,3-dihydrobenzothiophen-3-yl) imidazo[1,2-b]pyridazine-3,8-dicarboxamide]
< 0.05 µM | – | COCc1nc2c(C(=O)NC3CS(=O)(=O)c4ccccc43)ccnn2c1C(N)=O (centres unmarked) [Compound 223, N8-(1,1-dioxo-2,3-dihydrobenzothiophen-3-yl)-2-(methoxymethyl)imidazo[1,2-b]pyridazine-3,8-dicarboxamide]
< 0.05 µM | – | COCc1nn2c(C(=O)NC3CS(=O)(=O)C3)ccnc2c1C(N)=O [Compound 225, N7-(1,1-dioxothietan-3-yl)-2-(methoxymethyl)pyrazolo[1,5-a]pyrimidine-3,7-dicarboxamide]
< 0.05 µM | – | COCc1nn2c(C(=O)NC3CCC(F)(F)c4ccccc43)cc(C)nc2c1C(N)=O (centres unmarked) [Compound 226, N7-(4,4-difluorotetralin-1-yl)-2-(methoxymethyl)-5-methyl-pyrazolo[1,5-a]pyrimidine-3,7-dicarboxamide]
< 0.05 µM | – | COCc1nn2c(C(=O)NC3Cc4ccccc4C3)cc(C)nc2c1C(N)=O [Compound 227, N7-indan-2-yl-2-(methoxymethyl)-5-methyl-pyrazolo[1,5-a]pyrimidine-3,7-dicarboxamide]
< 0.05 µM | – | CC(C)c1nn2c(C(=O)NC3CS(=O)(=O)c4ccccc43)ccnc2c1C(N)=O (centres unmarked) [Compound 228, N7-(1,1-dioxo-2,3-dihydrobenzothiophen-3-yl)-2-isopropyl-pyrazolo[1,5-a]pyrimidine-3,7-dicarboxamide]
< 0.05 µM | – | NC(=O)c1c(C2CC2)nn2c(C(=O)NC3CCS(=O)(=O)c4ccccc43)ccnc12 (centres unmarked) [Compound 229, 2-cyclopropyl-N7-(1,1-dioxo-3,4-dihydro-2H-thiochromen-4-yl)pyrazolo[1,5-a]pyrimidine-3,7-dicarboxamide]
< 0.05 µM | – | CC(C)c1nn2c(C(=O)NC3CCS(=O)(=O)c4ccccc43)ccnc2c1C(N)=O (centres unmarked) [Compound 230, N7-(1,1-dioxo-3,4-dihydro-2H-thiochromen-4-yl)-2-isopropyl-pyrazolo[1,5-a]pyrimidine-3,7-dicarboxamide]
< 0.05 µM | – | NC(=O)c1c(C2CC2)nn2c(C(=O)NC3CS(=O)(=O)c4ccccc43)ccnc12 (centres unmarked) [Compound 231, 2-cyclopropyl-N7-(1,1-dioxo-2,3-dihydrobenzothiophen-3-yl)pyrazolo[1,5-a]pyrimidine-3,7-dicarboxamide]
